Test results as given in patent US11534283B2 (priority 2017, dated 2022).
“Also recorded” adds a separate entry of the source.

Tests used:
[1] = system: cells labeled adjacent the implantation site in the adult mouse cortex; type: cell-based
Description: Implantable devices were filled with α-bungarotoxin fused to the dye Alexa Fluor 555 (α-BTX Alexa 555) in PBS at a concentration of 0.3 mg/mL. Animals were treated with the implantable device for 2 hours prior to sacrifice. Tissues were prepared for live cell electrophysiology assays (patch clamp) and fluorescence imaging.
Implantable devices filled with fluorescently labeled α-bungarotoxin (α-BTX) were implanted and the release was studied via imaging and live cell electrophysiology assays.

adult mouse cortex = settings: in vivo

| Compound | electrophysiological activity of agonist AR-R17779 in the control group ([1]; cells labeled with control (Alexa 555) released from the device, patch clamp) | labeling of individual cells (uptake) (adult mouse cortex) | localization of fluorescence after release from the implantable device (adult mouse cortex) | electrophysiological response of the α-BTX labeled cell to agonist AR-R17779 [1] |
| --- | --- | --- | --- | --- |
| O=C1NCC2(CN3CCC2CC3)O1 (stereo not shown) [AR-R17779] | inhibitory activity |  |  |  |
| α-bungarotoxin [α-BTX-Alexa 555] |  | individual cells were clearly labeled; also recorded: labeling individual cells | local to the implantation site; also recorded: adjacent the implantation site | no activity |
